Assay results as given in patent US20230096028A1, “BICYCLIC HETEROCYCLYL COMPOUNDS AND USES THEREOF” (Revolution Medicines, Inc., priority 2019, published 2023).
Read-outs that look alike come from different tables or passages of the source.

Columns and labels:
[1] = system: PC-9 cells (EGFR Ex19Del); experiment: Potency Assay: pERK (SOS1 pERK IC50 Assay, AlphaLISA SureFire Ultra p-ERK1/2); type: cell-based; settings: Homo sapiens, read-out: SOS1 pERK IC50
How it was run: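 PC-9 (EGFR Ex19Del) cells plated overnight, then treated 1 h at 37° C. with 10-point 3-fold dilutions (top 10 μM final) in duplicate. Lysate pERK1/2 measured by AlphaLISA SureFire Ultra; IC50 from 4-parameter sigmoidal fit.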

[2] = target: T1, SOS1 catalytic domain (residues 564-1049) (Homo sapiens, UniProt Q07889); experiment: Mode of Action Assay: inhibition of SOS1 nucleotide exchange activity (SOS1 TR-FRET IC50 Assay)
T1 sequence (Q07889 564-1049): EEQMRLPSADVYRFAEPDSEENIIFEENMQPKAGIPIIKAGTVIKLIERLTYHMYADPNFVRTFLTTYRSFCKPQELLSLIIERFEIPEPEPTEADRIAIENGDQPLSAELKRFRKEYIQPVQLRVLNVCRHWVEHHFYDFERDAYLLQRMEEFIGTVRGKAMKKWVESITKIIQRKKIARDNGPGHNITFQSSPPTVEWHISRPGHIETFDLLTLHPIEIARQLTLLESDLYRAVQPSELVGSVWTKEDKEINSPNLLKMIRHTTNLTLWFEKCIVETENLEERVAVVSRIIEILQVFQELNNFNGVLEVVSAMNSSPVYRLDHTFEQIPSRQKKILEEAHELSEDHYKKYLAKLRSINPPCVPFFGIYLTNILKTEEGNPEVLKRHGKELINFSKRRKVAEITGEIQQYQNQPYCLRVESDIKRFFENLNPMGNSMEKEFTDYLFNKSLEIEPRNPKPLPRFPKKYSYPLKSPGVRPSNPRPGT

[3] = target: T1, SOS1 catalytic domain (residues 564-1049); experiment: Potency Assay: binding affinity to SOS1 using Surface Plasmon Resonance (SPR); design: SOS1 catalytic domain (residues 564-1049) immobilized on a sensor chip; settings: immobilized SOS1 catalytic domain (residues 564-1049), read-out: SOS1 SPR Equilibrium Kd
How it was run: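 Avi-tagged SOS1 catalytic domain captured on streptavidin chip (~6000 RU) in 0.01 M HEPES, 0.15 M NaCl, 0.05% P20. Compound dilution series flowed at 50 μL/min for association, then buffer for dissociation, with double reference subtraction. Kd derived from end-of-association binding response plotted against concentration.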

[4] = PC-9 cells (EGFR Ex19Del), 1 hour incubation, AlphaLISA p-ERK1/2

## C[C@@H](Nc1nc(Cl)nc2c1CN(C(=O)N1CCOCC1)C2)c1cccc(C(F)(F)F)c1 [Example 137, 2-chloro-6-(morpholine-4-carbonyl)-N-[(1R)-1-[3-(trifluoromethyl)phenyl]ethyl]-5H,6H,7H-pyrrolo[3,4-d]pyrimidin-4-amine]
[1]; [4]
  IC50: < 1000 nM
[2]
  IC50: < 1000 nM
[3]
  Kd: < 400 nM

## C[C@@H](Nc1nc(Cl)nc2c1CN(C(=O)C1CCN(C)C1)C2)c1cc(N)cc(C(F)(F)F)c1 (stereo partly drawn) [Example 101]
[1]; [4]
  IC50: < 1000 nM
[2]
  IC50: < 1000 nM
[3]
  Kd: < 400 nM

## C[C@@H](Nc1nc(Cl)nc2c1CN(S(=O)(=O)C1CC(F)(F)C1)CC2)c1cc(N)cc(C(F)(F)F)c1 [Example 456]
[1]; [4]
  IC50: < 1000 nM
[2]
  IC50: < 1000 nM
[3]
  Kd: < 400 nM

## C[C@@H](Nc1nc(Cl)nc2c1CN(C(=O)[C@H]1CCOC[C@H]1N)C2)c1cccc(C(F)F)c1F [Example 306]
[1]; [4]
  IC50: < 1000 nM
[2]
  IC50: < 1000 nM
[3]
  Kd: < 400 nM

## C[C@@H](Nc1nc(Cl)nc2c1CN(C(=O)c1cc(N3CCOCC3)ccn1)C2)c1cc(N)cc(C(F)(F)F)c1 [Example 68]
[1]; [4]
  IC50: < 1000 nM
[2]
  IC50: < 1000 nM
[3]
  Kd: < 400 nM

## C[C@@H](Nc1nc(Cl)nc2c1CN(C(=O)N1CCC3(CCN3)CC1)C2)c1cccc(C(F)F)c1F [Example 390]
[1]; [4]
  IC50: < 1000 nM
[2]
  IC50: < 1000 nM
[3]
  Kd: < 400 nM

## C[C@@H](Nc1nc(Cl)nc2c1CN(C(=O)[C@@H]1C[C@H]1C#N)CC2)c1cc(N)cc(C(F)(F)F)c1 [Example 223]
[1]; [4]
  IC50: < 1000 nM
[2]
  IC50: < 1000 nM
[3]
  Kd: < 400 nM

## C[C@@H](Nc1ncnc2c1CC(N1CC3(COC3)C1)CC2)c1cccc(C(F)F)c1F (stereo partly drawn) [Example 442]
[1]; [4]
  IC50: > 1000 nM
[2]
  IC50: < 1000 nM
[3]
  Kd: < 400 nM

## C[C@@H](Nc1nc(Cl)nc2c1CN(C(=O)N1CCOCC1)C2)c1cccc(C(F)(F)C2CCCO2)c1 (stereo partly drawn) [Example 491]
[1]; [4]
  IC50: < 1000 nM
[2]
  IC50: < 1000 nM
[3]
  Kd: < 400 nM

## C[C@@H](Nc1nc(Cl)nc2c1CN(S(=O)(=O)C1CCCNC1)C2)c1cc(N)cc(C(F)(F)F)c1 (stereo partly drawn) [Example 49]
[1]; [4]
  IC50: < 1000 nM
[2]
  IC50: < 1000 nM
[3]
  Kd: < 400 nM

## Cc1nc2c(c(N[C@H](C)c3cc(N)cc(C(F)(F)F)c3)n1)CN(C(=O)OC1CCOCC1)C2 [Example 118, oxan-4-yl 4-{[(1R)-1-[3-amino-5-(trifluoromethyl)phenyl]ethyl]amino}-2-methyl-5H,6H,7H-pyrrolo[3,4-d]pyrimidine-6-carboxylate]
[1]; PC-9, 1 h
  IC50: < 1000 nM
[2]
  IC50: < 1000 nM
[3]
  Kd: > 400 nM

## Cc1nc2c(c(N[C@H](C)c3cc(N)cc(C(F)(F)F)c3)n1)CN(S(=O)(=O)N1CCOCC1)C2 [Example 37, (R)—N-(1-(3-amino-5-(trifluoromethyl)phenyl)ethyl)-2-methyl-6-(morpholinosulfonyl)-6,7-dihydro-5H-pyrrolo[3,4-d]pyrimidin-4-amine]
[1]; [4]
  IC50: < 1000 nM
[2]
  IC50: < 1000 nM
[3]
  Kd: < 400 nM

## C[C@@H](Nc1nc(Cl)nc2c1CN(C(=O)CC1CCN(C)C1)C2)c1cc(N)cc(C(F)(F)F)c1 (stereo partly drawn) [Example 257]
[1]; [4]
  IC50: > 1000 nM
[2]
  IC50: < 1000 nM
[3]
  Kd: < 400 nM

## Cc1nc2c(c(N[C@H](C)c3cc(N)cc(C(F)(F)F)c3)n1)CN(C(=O)C1CCOCC1)C2 [Example 119, N-[(1R)-1-[3-amino-5-(trifluoromethyl)phenyl]ethyl]-2-methyl-6-(oxane-4-carbonyl)-5H,6H,7H-pyrrolo[3,4-d]pyrimidin-4-amine]
[1]; [4]
  IC50: > 1000 nM
[2]
  IC50: < 1000 nM
[3]
  Kd: < 400 nM

## C[C@@H](Nc1nc(Cl)nc2c1CN(C(=O)C1(F)CNC1)C2)c1cc(N)cc(C(F)(F)F)c1 [Example 263]
[1]; [4]
  IC50: < 1000 nM
[2]
  IC50: < 1000 nM
[3]
  Kd: < 400 nM

## COc1nccnc1C(=O)N1Cc2nc(Cl)nc(N[C@H](C)c3cc(N)cc(C(F)(F)F)c3)c2C1 [Example 75]
[1]; [4]
  IC50: < 1000 nM
[2]
  IC50: < 1000 nM
[3]
  Kd: < 400 nM

## C[C@@H](Nc1nc(Cl)nc2c1CN(C(=O)N1CCCC13CCN(C)C3)C2)c1cccc(C(F)F)c1F (stereo partly drawn) [Example 413]
[1]; [4]
  IC50: < 1000 nM
[2]
  IC50: < 1000 nM
[3]
  Kd: < 400 nM

## COC(C(=O)N1Cc2nc(Cl)nc(N[C@H](C)c3cc(N)cc(C(F)(F)F)c3)c2C1)C1CCOC1 (stereo partly drawn) [Example 259]
[1]; [4]
  IC50: < 1000 nM
[2]
  IC50: < 1000 nM
[3]
  Kd: < 400 nM

## C[C@@H](Nc1nc(Cl)nc2c1CN(C(=O)N1CCOCC1)C2)c1cccc(C(F)(F)C2CNCCO2)c1 (stereo partly drawn) [Example 484, 2-chloro-N-[(1R)-1-{3-[difluoro(morpholin-2-yl)methyl]phenyl}ethyl]-6-(morpholine-4-carbonyl)-5H,6H,7H-pyrrolo[3,4-d]pyrimidin-4-amine]
[1]; PC-9, 1 h
  IC50: < 1000 nM
[2]
  IC50: < 1000 nM
[3]
  Kd: < 400 nM

## C[C@@H](Nc1nc(Cl)nc2c1CN(C(=O)C1(F)CCOCC1)C2)c1cc(N)cc(C(F)(F)F)c1 [Example 256]
[1]; [4]
  IC50: < 1000 nM
[2]
  IC50: < 1000 nM
[3]
  Kd: < 400 nM

## C[C@@H](Nc1nc(Cl)nc2c1CN(C(=O)N1CCOCC1)C2)c1cccc(C(C)(F)F)c1 [Example 467, [2-chloro-4-[[(1R)-1-[3-(1,1-difluoroethyl)phenyl]ethyl]amino]-5,7-dihydropyrrolo[3,4-d]pyrimidin-6-yl]-morpholino-methanone]
[1]; [4]
  IC50: > 1000 nM
[2]
  IC50: < 1000 nM
[3]
  Kd: < 400 nM

## COC1(C(=O)N2Cc3nc(Cl)nc(N[C@H](C)c4cccc(C(F)F)c4F)c3C2)CNC1 [Example 302]
[1]; [4]
  IC50: < 1000 nM
[2]
  IC50: < 1000 nM
[3]
  Kd: < 400 nM

## C[C@@H](Nc1nc(Cl)nc2c1CN(C(=O)c1ccncn1)C2)c1cc(N)cc(C(F)(F)F)c1 [Example 73]
[1]; [4]
  IC50: < 1000 nM
[2]
  IC50: < 1000 nM
[3]
  Kd: < 400 nM

## C[C@@H](Nc1nc(Cl)nc2c1CN(C(=O)c1cccc(OC3CCOCC3)n1)C2)c1cc(N)cc(C(F)(F)F)c1 [Example 83]
[1]; [4]
  IC50: < 1000 nM
[2]
  IC50: > 1000 nM
[3]
  Kd: > 400 nM

## C[C@@H](Nc1nc(Cl)nc2c1CN(C(=O)N1CCOCC1)C2)c1cccc(C(F)F)c1Br [Example 528, N-[(1R)-1-[2-bromo-3-(difluoromethyl)phenyl]ethyl]-2-chloro-6-(morpholine-4-carbonyl)-5H,6H,7H-pyrrolo[3,4-d]pyrimidin-4-amine]
[1]; PC-9, 1 h
  IC50: < 1000 nM
[2]
  IC50: < 1000 nM
[3]
  Kd: > 400 nM

## C[C@@H](Nc1nc(Cl)nc2c1CN(C(=O)[C@@]13COC[C@@H]1CN(S(C)(=O)=O)C3)CC2)c1cc(N)cc(C(F)(F)F)c1 [Example 222]
[1]; [4]
  IC50: > 1000 nM
[2]
  IC50: > 1000 nM
[3]
  Kd: > 400 nM

## C[C@@H](Nc1nc(Cl)nc2c1CN(C(=O)c1cc(N3CCOCC3)ccn1)CC2)c1cc(N)cc(C(F)(F)F)c1 [Example 238]
[1]; [4]
  IC50: > 1000 nM
[2]
  IC50: > 1000 nM
[3]
  Kd: > 400 nM

## C[C@@H](Nc1nc(Cl)nc2c1CN(C(=O)C1(C#N)CC1)CC2)c1cc(N)cc(C(F)(F)F)c1 [Example 194]
[1]; [4]
  IC50: < 1000 nM
[2]
  IC50: > 1000 nM
[3]
  Kd: > 400 nM

## C[C@@H](Nc1nc(CO)nc2c1CN(C(=O)N1CCOCC1)C2)c1cc(N)cc(C(F)(F)F)c1 [Example 129, (4-{[(1R)-1-[3-amino-5-(trifluoromethyl)-phenyl]ethyl]amino}-6-(morpholine-4-carbonyl)-5H,6H,7H-pyrrolo[3,4-d]pyrimidin-2-yl)methanol]
[1]; [4]
  IC50: < 1000 nM
[2]
  IC50: < 1000 nM
[3]
  Kd: < 400 nM

## C[C@@H](Nc1nc(Cl)nc2c1CN(C(=O)c1ccc3c(n1)CCNC3)C2)c1cc(N)cc(C(F)(F)F)c1 [Example 82]
[1]; [4]
  IC50: < 1000 nM
[2]
  IC50: < 1000 nM
[3]
  Kd: < 400 nM

## COC1CCN(S(=O)(=O)N2CCc3nc(Cl)nc(N[C@H](C)c4cc(N)cc(C(F)(F)F)c4)c3C2)CC1 [Example 179]
[1]; [4]
  IC50: < 1000 nM
[2]
  IC50: < 1000 nM
[3]
  Kd: < 400 nM

## CC(=O)NC1(C(=O)N2Cc3nc(Cl)nc(N[C@H](C)c4cccc(C(F)F)c4F)c3C2)CCCCC1 [Example 332]
[1]; [4]
  IC50: > 1000 nM
[2]
  IC50: < 1000 nM
[3]
  Kd: > 400 nM

## C[C@@H](Nc1nc(Cl)nc2c1CN(C(=O)C1(C)CCN(C3COC3)CC1)C2)c1cccc(C(F)F)c1F [Example 327]
[1]; [4]
  IC50: < 1000 nM
[2]
  IC50: < 1000 nM
[3]
  Kd: < 400 nM

## C[C@@H](Nc1nc(Cl)nc2c1CN(C(=O)[C@@H]1CNC[C@@H]1C)C2)c1cc(N)cc(C(F)(F)F)c1 [Example 264]
[1]; [4]
  IC50: > 1000 nM
[2]
  IC50: < 1000 nM
[3]
  Kd: < 400 nM

## C[C@@H](Nc1nc(Cl)nc2c1CN(C(=O)[C@@H]1C[C@@H]1C#N)CC2)c1cc(N)cc(C(F)(F)F)c1 [Example 205]
[1]; [4]
  IC50: < 1000 nM
[2]
  IC50: > 1000 nM
[3]
  Kd: < 400 nM
